MIC and antibacterial properties data for three compounds are collected here from US3959468A, “Antibiotic equisetin and method of production” (The United States of America as represented by the …, priority 1974, dated 1976).

Test [1] concerns Mycobacterium phlei. The test is described as follows: Minimum inhibitory concentration, agar streak test on TGY agar (M. phlei). In kind it is cell-based. As to conditions: Mycolicibacterium phlei, TGY agar, 37° C., 24 and 48 hr., read-out: Antimicrobial agent MIC. As to the method: (§1) Minimum inhibitory concentrations for microorganisms. The F. equiseti NRRL 5537 antibiotic was diluted in ethanol. Streptomycin sulfate and isoniazid were diluted in water. Amounts up to 1 ml. were added to TGY agar to provide the desired double dilution test concentrations. Minimum inhibitory concentrations of the antimicrobial agents were determined by streaking a loopful of standardized suspensions of 24- to 48-hr. cultures of selected microorganisms onto the surface of 20 ml. of the modified TGY agar in a standard petri dish. Microorganisms were cultured on TGY agar slants and diluted with TGY broth to yield a transmittance of about 90% at 600 nm. in a Spectronic-20 spectrophotometer. All cultures grew on control plates containing 1 ml. ethanol per 100 ml. TGY agar. Bacteria were incubated at 37° C. and the fungi at room temperature.

Test [2] concerns Bacillus subtilis. The test is described as follows: Minimum inhibitory concentration, agar streak test on TGY agar (B. subtilis). In kind it is cell-based. As to the method:
as §1

Test [3] relates to Staphylococcus aureus. The test is described as follows: Minimum inhibitory concentration, agar streak test on TGY agar (S. aureus). It is filed as cell-based. As to the method: as §1
Test [4] concerns M. rhodochrus. The test is described as follows: Minimum inhibitory concentration, agar streak test on TGY agar (M. rhodochrus). As to conditions: NRRL B-2141, 37° C., 24 and 48 hr., read-out: Antimicrobial agent MIC. It is filed as cell-based. As to the method: as §1
Test [5] deals with Neisseria perflava. The experiment in a line: Minimum inhibitory concentration, agar streak test on TGY agar (N. perflava). In kind it is cell-based. As to the method:
as §1

Test [6] deals with M. smegmatis. The experiment in a line: Minimum inhibitory concentration, agar streak test on TGY agar (M. smegmatis). It is filed as cell-based. As to conditions: Mycolicibacterium smegmatis, NRRLB612, NRRL B-612, 37° C., 24 and 48 hr., read-out: Antimicrobial agent MIC. As to the method: as §1
Test [7] concerns bacteria. As to conditions: cited from earlier work.
The mark [8] stands for this setting: NRRLB543, NRRL B-543, TGY agar, 37° C., 24 and 48 hr., read-out: Antimicrobial agent MIC.

Each structure is given as a SMILES string. Values after ≈ are worked out from the molar mass of the structure shown. Like-named read-outs stand apart in the source and are kept apart here.

In the case of `NNC(=O)c1ccncc1` [Isoniazid], the MIC is 4 µg/mL (≈ 29.2 µM) in test [1] (NRRLB609, NRRL B-609); 4 µg/mL (≈ 29.2 µM) in test [1] (NRRLB610, NRRL B-610); 4 µg/mL (≈ 29.2 µM) in test [1] (NRRLB4051, NRRL B-4051); over 128 µg/mL in test [2] (B. subtilis strains, Table 1 footnote 1 (explains the dashes), read-out: not inhibited by (isoniazid per ml. medium)); 128 µg/mL (≈ 933 µM) in test [2] (setting [8]); over 128 µg/mL in test [3] (S. aureus strains, Table 1 footnote 1 (explains the dashes), read-out: not inhibited by (isoniazid per ml. medium)). The MIC was 64 µg/mL (≈ 467 µM) in test [4]; over 128 µg/mL in test [5] (N. perflava strains, Table 1 footnote 1 (explains the dashes), read-out: not inhibited by (isoniazid per ml. medium)); 4 µg/mL (≈ 29.2 µM) in test [6].
In the case of `[H]/N=C(/N)N[C@H]1[C@H](O)[C@@H](O)[C@H](O[C@@H]2O[C@@H](C)[C@](O)(C=O)[C@H]2O[C@@H]2O[C@@H](CO)[C@H](O)[C@@H](O)[C@@H]2NC)[C@@H](N/C(N)=N\[H])[C@@H]1O` [Streptomycin], the MIC turned out to be 2 µg/mL (≈ 3.44 µM) in test [1] (NRRLB609, NRRL B-609); 2 µg/mL (≈ 3.44 µM) in test [1] (NRRLB610, NRRL B-610); 2 µg/mL (≈ 3.44 µM) in test [1] (NRRLB4051, NRRL B-4051); 4 µg/mL (≈ 6.88 µM) in test [2] (setting [8]); 8 µg/mL (≈ 13.8 µM) in test [2] (NRRLB558, NRRL B-558, TGY agar, 37° C., 24 and 48 hr., read-out: Antimicrobial agent MIC); 2 µg/mL (≈ 3.44 µM) in test [2] (NRRLB644, NRRL B-644, TGY agar, 37° C., 24 and 48 hr., read-out: Antimicrobial agent MIC). The MIC in test [2] (NRRLB765, NRRL B-765, TGY agar, 37° C., 24 and 48 hr., read-out: Antimicrobial agent MIC) was found to be 2 µg/mL (≈ 3.44 µM); in test [2] (NRRLB972, NRRL B-972, TGY agar, 37° C., 24 and 48 hr., read-out: Antimicrobial agent MIC) it was 8 µg/mL (≈ 13.8 µM); in test [2] (NRRLB1650, NRRL B-1650, TGY agar, 37° C., 24 and 48 hr., read-out: Antimicrobial agent MIC) it was 8 µg/mL (≈ 13.8 µM); in test [2] (NRRLB3284, NRRL B-3284, TGY agar, 37° C., 24 and 48 hr., read-out: Antimicrobial agent MIC) it was 4 µg/mL (≈ 6.88 µM); in test [3] (NRRLB120, NRRL B-120, TGY agar, 37° C., 24 and 48 hr., read-out: Antimicrobial agent MIC) it was 2 µg/mL (≈ 3.44 µM); in test [3] (NRRLB124, NRRL B-124, TGY agar, 37° C., 24 and 48 hr., read-out: Antimicrobial agent MIC), 4 µg/mL (≈ 6.88 µM). For the same compound, the MIC was 2 µg/mL (≈ 3.44 µM) in test [3] (NRRLB313, NRRL B-313, TGY agar, 37° C., 24 and 48 hr., read-out: Antimicrobial agent MIC); 8 µg/mL (≈ 13.8 µM) in test [3] (NRRLB678, NRRL B-678, TGY agar, 37° C., 24 and 48 hr., read-out: Antimicrobial agent MIC); 4 µg/mL (≈ 6.88 µM) in test [3] (NRRLB1317, NRRL B-1317, TGY agar, 37° C., 24 and 48 hr., read-out: Antimicrobial agent MIC); 8 µg/mL (≈ 13.8 µM) in test [3] (NRRLB1318, NRRL B-1318, TGY agar, 37° C., 24 and 48 hr., read-out: Antimicrobial agent MIC); 2 µg/mL (≈ 3.44 µM) in test [3] (NRRLB2746, NRRL B-2746, TGY agar, 37° C., 24 and 48 hr., read-out: Antimicrobial agent MIC); 2 µg/mL (≈ 3.44 µM) in test [4]. The MIC turned out to be 2 µg/mL (≈ 3.44 µM) in test [5] (NRRLB1458, NRRL B-1458, TGY agar, 37° C., 24 and 48 hr., read-out: Antimicrobial agent MIC); 2 µg/mL (≈ 3.44 µM) in test [5] (NRRLB1788, NRRL B-1788, TGY agar, 37° C., 24 and 48 hr., read-out: Antimicrobial agent MIC); 2 µg/mL (≈ 3.44 µM) in test [5] (NRRLB1789, NRRL B-1789, TGY agar, 37° C., 24 and 48 hr., read-out: Antimicrobial agent MIC); 2 µg/mL (≈ 3.44 µM) in test [5] (NRRLB1790, NRRL B-1790, TGY agar, 37° C., 24 and 48 hr., read-out: Antimicrobial agent MIC); 4 µg/mL (≈ 6.88 µM) in test [5] (NRRLB1791, NRRL B-1791, TGY agar, 37° C., 24 and 48 hr., read-out: Antimicrobial agent MIC); 2 µg/mL (≈ 3.44 µM) in test [6].
Take `O=C1C=CCO1` [butenolide]: in test [7], the antibacterial properties result is “either lack or only exhibit weak antibacterial properties”.
